Data published in patent US10759994B2, “Luminogenic transition metal-based pyridyl complex and its use” (City University of Hong Kong, priority 2016, dated 2020).

Legend:
[1] = Photophysical data (emission wavelength, lifetime, quantum yield); format: physicochemical
Protocol: Electronic absorption spectra were recorded on an Agilent 8453 diode array spectrophotometer. Steady-state emission spectra were recorded on a HORIBA JOBIN YVON Fluorolog TCSPC spectrofluorometer. Unless specified otherwise, all solutions for photophysical studies were degassed with no fewer than four successive freeze-pump-thaw cycles and stored in a 10-cm^3 round bottomed flask equipped with a side-arm 1-cm fluorescence cuvette and sealed from the atmosphere by a Rotaflo HP6/6 quick-release Teflon stopper. Luminescence quantum yields were measured by the optically dilute method (Demas, J. N. and Crosby, G. A., J. Phys. Chem. 1971, 75, 991) using an aerated aqueous solution of [Ru(bpy)3]Cl2 (ϕem=0.028, λex=455 nm) as the standard solution (Wallace, L. and Rillema, D. P., Inorg. Chem., 1993, 32, 3836). The concentrations of the standard and sample solutions were adjusted until the absorbance at 455 nm was 0.1. The emission lifetimes were measured on a HORIBA JOBIN YVON Fluorolog TCSPC spectrofluorometer in the Fast MCS lifetime mode with a NanoLED N-375 as the excitation source.
The very low emission quantum yield of complexes 1a-5b compared with other related iridium(III) and ruthenium(II) systems are expected to be due to quenching by the nitrone moiety.
In particular, the emission quantum yields of the iridium(III) complexes 1a, 2a and 3a (ϕem<0.021; Table 1) were much lower than those of common cyclometalated iridium(Ill) polypyridyl complexes (Li, S. P.-Y. et al., Chem. Eur. J. 2010, 16, 8329; Li, S. P.-Y. et al., Biomaterials 2013, 34, 7519; Lo, K. K.-W. et al., Chem. Commun. 2013, 49, 4271) which is expected to be a consequence of efficient quenching associated with isomerization of the C═N group.

[2] = Emission enhancement upon reaction with BCN—OH; format: physicochemical; settings: complex 10 μM, BCN—OH 1 mM, aerated MeOH, 298 K
Source text: The strained alkyne BCN—OH has been selected as a model substrate. […] Namely, these findings confirm that complexes 1a-5b remained non-emissive or weakly emissive as long as the nitrone moiety is intact and resume their strongly emissive behavior upon cycloaddition reaction with strained alkynes.

HeLa cells = format: cell-based; settings: complex 40 μM; for Cell viability with BCN-C10 pretreatment: BCN-C10 pretreatment (200 μM, 1 h); for Percentage of survival: 37° C., 6 h
Source text: The results particularly highlight the potential of the luminogenic transition metal-based polypyridyl complexes of the present invention for bioorthogonal labeling. […] Importantly, although the cellular uptake of complex 2b was substantially higher, it was much less cytotoxic than complex 4b toward the pretreated cells. […] The results also highlight the potential therapeutic use of intracellular bioorthogonal coupling reactions in activating the cytotoxicity of metallo drugs.
For determining the cytotoxicity of complexes 1 b 5b, HeLa cells were seeded in a 96-well flat-bottomed microplate (about 10,000 cells well^−1) in growth medium (100 μL) and incubated at 37° C. under a 5% CO2 atmosphere for 24 h. The cells were then incubated in either blank medium or growth medium/DMSO (99:1, v/v) (100 μL) containing BCN-C10 (200 μM) in the dark at 37° C. under a 5% CO2 atmosphere for 1 h. The medium was then removed, the cell layer was washed with PBS, and further incubated in growth medium/DMSO (99:1, v/v) (100 μL) containing the ruthenium(II) complexes (40 μM) in the dark at 37° C. under a 5% CO2 atmosphere for 6, 12, or 24 h. Wells containing untreated cells were used as blank control. The microplate was incubated at 37° C. under a 5% CO2 atmosphere for another 4 h. The growth medium was then removed, and DMSO (200 μL) was added to each well. The microplate was further incubated for 15 min. The absorbance of the solutions at 570 nm was measured with a SPECTRAmax 340 microplate reader.

[3] = Potassium phosphate buffer (50 mM, pH 7.4)/MeOH (4:1, v/v), 298 K
[4] = Potassium phosphate buffer (50 mM, pH 7.4)/DMSO (9:1, v/v), 298 K

| Structure (SMILES) | Φem ([1]; MeOH, 298 K) | λem ([1]; MeOH, 298 K) | τo ([1]; MeOH, 298 K) | Φem [1, 3] | λem [1, 3] | τo [1, 3] | Emission enhancement factors (I/Io) [2] | Cell viability with BCN-C10 pretreatment (HeLa cells) | Percentage of survival (HeLa cells) | Φem ([1]; CH2Cl2, 298 K) | τo ([1]; CH2Cl2, 298 K) | Φem [1, 4] | λem [1, 4] | τo [1, 4] |
| --- | --- | --- | --- | --- | --- | --- | --- | --- | --- | --- | --- | --- | --- | --- |
| Cc1ccnc(-c2cc(/C=[N+](\[O-])c3ccccc3)ccn2)c1.F[P-](F)(F)(F)(F)F.F[P-](F)(F)(F)(F)F.[Ru+2].c1ccc(-c2ccccn2)nc1.c1ccc(-c2ccccn2)nc1 [Complex 5b] | 0.015 | 608 nm | 0.63 μs | 0.006 | 610 nm | 0.69 μs | 3.9 | maintained good biocompatibility | 92.78 ± 8.54% | – | – | – | – | – |
| CCCCNC(=O)c1ccnc(-c2cc(C(=O)NCCCC)ccn2)c1.CCCCNC(=O)c1ccnc(-c2cc(C(=O)NCCCC)ccn2)c1.Cc1ccnc(-c2cc(/C=[N+](/C)[O-])ccn2)c1.F[P-](F)(F)(F)(F)F.F[P-](F)(F)(F)(F)F.[Ru+2] [Complex 2b] | 0.006 | 647 nm | 0.98 μs | – | – | – | 7.1 | maintained good biocompatibility | 94.83 ± 16.20% | 0.013 | 1.68 μs | 0.003 | 650 nm | 0.52 μs |
| Cc1ccnc(-c2cc(/C=[N+](/C)[O-])ccn2)c1.F[P-](F)(F)(F)(F)F.F[P-](F)(F)(F)(F)F.[Ru+2].c1ccc(-c2ccccn2)nc1.c1ccc(-c2ccccn2)nc1 [Complex 1b] | 0.006 | 609 nm | 0.94 μs | – | – | – | 9.5 | – | 91.37 ± 5.73% | 0.006 | 1.20 μs | 0.004 | 611 nm | 0.64 μs |
